The source of these data is patent publication US12138262B2, “Process of manufacture of a compound for inhibiting the activity of SHP2, as well as products resulting from acid addition” (Novartis AG, priority 2018, dated 2024).

Common to all, as to type: physicochemical
A short description of data set [1]: Excipient compatibility: degradation in experimental excipient mixtures at 50° C./75% RH.
Data set [2] can be described thus: Dynamic vapor sorption / water content versus relative humidity. The following applies: 10% RH to 50% RH at room temperature. On the procedure: DVS/Dynamic Vapor Sorption) data were obtained as follows: Dynamic vapor sorption was performed using a SMS Advantage system. Approximately 10 mg of sample was subjected to varying humidities between 0% RH and 95% RH at 25° C. Evaluation was performed using the system software.

The nature of data set [3]: Form conversion in aqueous organic solvent mixtures. The following applies: aqueous organic solvent mixtures with very small quantities of water (1-2%).

Consider `C[C@@H]1OCC2(CCN(c3cnc(Sc4ccnc(N)c4Cl)c(N)n3)CC2)[C@@H]1N.C[C@@H]1OCC2(CCN(c3cnc(Sc4ccnc(N)c4Cl)c(N)n3)CC2)[C@@H]1N.O.O=C(O)CCC(=O)O.O=C(O)CCC(=O)O` [Example 6, (3S,4S)-8-(6-amino-5-((2-amino-3-chloropyridin-4-yl)thio)pyrazin-2-yl)-3-methyl-2-oxa-8-azaspiro[4.5]decan-4-amine, succinate (1:1) hemihydrate, modification (form) HA], for which the “degradation levels in excipient mixtures” value in data set [1] (all four experimental excipient mixtures (Mixtures 1-4)) was “acceptable degradation levels”. For the same compound, the “water content over 10% RH to 50% RH” value in data set [2] is listed as “constant water content”. As to `C[C@@H]1OCC2(CCN(c3cnc(Sc4ccnc(N)c4Cl)c(N)n3)CC2)[C@@H]1N.O=C(O)CCCCC(=O)O` [Example 10, (3S,4S)-8-(6-amino-5-((2-amino-3-chloropyridin-4-yl)thio)pyrazin-2-yl)-3-methyl-2-oxa-8-azaspiro[4.5]decan-4-amine adipate (1:1), Modification A], the “degradation with mixture containing mannitol, Ac-di-Sol and microcrystalline cellulose” value in data set [1] (mixture containing mannitol, Ac-di-Sol and microcrystalline cellulose (Mixture 4)) was “strong degradation”.

For the compound `C[C@@H]1OCC2(CCN(c3cnc(Sc4ccnc(N)c4Cl)c(N)n3)CC2)[C@@H]1N.O=C(O)CCC(=O)O` [Example 11, (3S,4S)-8-(6-amino-5-((2-amino-3-chloropyridin-4-yl)thio)pyrazin-2-yl)-3-methyl-2-oxa-8-azaspiro[4.5]decan-4-amine, succinate (1:1), anhydrous form, Modification A], in data set [3], the “conversion of solid form” value is on record as “rapidly converted into Modification HA”. As for `C[C@@H]1OCC2(CCN(c3cnc(Sc4ccnc(N)c4Cl)c(N)n3)CC2)[C@@H]1N` [Example 13, (3S,4S)-8-(6-amino-5-((2-amino-3-chloropyridin-4-yl)thio)pyrazin-2-yl)-3-methyl-2-oxa-8-azaspiro[4.5]decan-4-amine free base Modification A], in data set [1] (mixture containing HPMC (Mixture 2)), the “degradation with excipient mixture containing HPMC” value was “strong degradation”.
